Experimental data published in patent US20090130165A1, “MIF Inhibitors” (Cortical Pty Ltd, priority 2005, published 2009).
Where two headings read alike, the source gives them in different places.

Columns and labels:
[1] = Lower limits of aqueous solubility by nephelometry; type: physicochemical; conditions: phosphate-buffered saline with 0.005% (v/v) P20 and 5% DMSO, aqueous with cosolvent or surfactant or cyclodextrin, kinetic from dmso stock, 0.005% (v/v) P20, 5% DMSO, read-out: Solubility Lower Limit Range
Method: Lower limits of aqueous compound solubility were determined in a nepholometer in phosphate-buffered saline containing 0.005% (v/v) P20 and a final concentration of 5% DMSO. Briefly, compounds were initially dissolved in DMSO as a 10 mM stock solution and diluted to 1 mM and 0.5 mM working solutions with neat DMSO. The compounds were then titrated in DMSO and a constant volume of DMSO stock added to filtered PBS/P20 solution so that the final DMSO concentration was 5%. The solubility was then determined in clear, flat-bottom 96-well plates using the nephelometer and reported as the concentration range at which the compound begins to precipitate from solution.

C57Bl/6j mice = test: In vivo assay of MIF antagonism: murine endotoxic shock model, serum TNF; set-up: species or system mouse; conditions: intra-peritoneal, 10, 1 and 0.1 mg/kg at 24 hours and 1 hour before LPS 1 mg/kg (FIG. 3)
Method: The activities of compounds were studied in the murine endotoxic shock model. This model has been previously shown to be dependent on MIF^(14). Administration of a compound which inhibits the cytokine activity of MIF would be expected to result hi a reduction in serum level s of the pro-inflammatory cytokine TNF.
Endotoxaemia was induced by intra-peritoneal Injection of C57Bl/6j mice with lipopolysaccharide (LPS) (1 mg/kg) in 200 μl saline. Animals were treated with either a saline solution (control) only, or LPS with vehicle or compounds B1 and A3 in vehicle at doses of 10, 1 and 0.1 mg/kg body weight, administered by intra-peritoncal injection at 24 hours and 1 hour before intra-peritoneal LPS injection. After 1 hour mice were humanely killed by CO2 inhalation then neck dislocation. Serum was obtained from blood obtained by cardiac puncture prior to death and measured for TNF levels by ELISA according to the manufacturer's instructions.

[2] = system: LPS-induced IL-6 production in RAW264.7 mouse macrophage cell line; test: Inhibition of LPS-induced production of IL-6 in RAW264.7 macrophages; type: cell-based; conditions: 50 uM compound, 100 ng/ml LPS 4 hr, RAW264.7 cells, relative to LPS+DMSO control
Method: MIF is an important factor in the innate immune response to toxins such as the bacterial endotoxin lipopolysaccharide (LPS). […] A compound with the ability to inhibit the biological activity of MIF would therefore inhibit the activation of cytokine production by macrophages in response to LPS. The RAW264.7 mouse macrophage cell line was propagated in DMEM/10% foetal calf serum (FCS) at 37° C. in 5% CO2. 24 hr prior to assay cells were seeded in 96-well tissue culture plates. Cells were allowed to adhere for 4 hr prior to transfer to DMEM/0.5% FCS for 18 hr. Cells were then treated with 50 uM compound in DMSO for 30 min prior to stimulation for 4 hr with 100 ng/ml LPS. Cell culture supernatants were then collected from each well and assayed for IL-6 levels by ELISA (R&D Systems) according to the manufacturer's instructions.

[3] = biological target: T1, immobilized recombinant MIF protein (Homo sapiens, UniProt P14174); test: Interaction of compounds with MIF protein by Surface Plasmon Resonance (Biacore S51); type: binding; conditions: SPR; for Kd / kon / Kinetics Method Kd (10^−3 s^−1): immobilized MIF; for equilibrium dissociation constant (KD) values, in words: immobilized recombinant MIF; for kon: association rate, read-out: Kinetics Method Ka (10^3 M^−1s^−1); for Kinetics Method Kd (10^−3 s^−1): dissociation rate
T1 sequence (P14174 2-115 limits assumed): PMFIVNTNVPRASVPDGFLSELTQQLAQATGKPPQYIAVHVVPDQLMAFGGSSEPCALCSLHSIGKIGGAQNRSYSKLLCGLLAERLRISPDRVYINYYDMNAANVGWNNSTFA
Method: The interaction of compounds with MIF protein was characterized by Surface Plasmon Resonance (SPR) analysis using an S51 (Biacore International AB) automated small molecule biosensor assay system. Recombinant MIF protein was immobilized on a carboxymethyl dextran biosensor chip using amine coupling chemistry. Compound binding to the immobilized MIF protein was measured at 11 concentrations up to 100 uM (in duplicate), with corrections for the DMSO used as a solvent at a final concentration of 5%. The change in SPR output relative to that of a control underivatized reference spot was recorded over time. The affinity and stoichiometry of interaction was calculated using steady state and/or kinetics evaluation methods with software supplied by the manufacturer.

[4] = system: LPS-induced IL-6 production in RAW264.7 mouse macrophage cell line; test: Inhibition of LPS-induced production of IL-6 in RAW264.7 macrophages; type: cell-based; conditions: RAW264.7 cells, up to 100 μM compound (FIG. 1)
[5] = biological target: T2, Recombinant human MIF protein (Homo sapiens, UniProt P14174); test: Inhibition of MIF tautisomerase activity (L-dopachrome); type: biochemical; conditions: mean±standard deviation of 2-4 experiments
T2 sequence (P14174 2-115 limits assumed): T1 sequence (P14174 2-115 limits assumed)
Method: MIF protein has the ability in vitro to catalyze the tautisomerization of dopachrome^(15).
Recombinant human MIF protein was pre-incubated with compounds as indicated prior to the addition of L-dopachrome substrate. Tautomerase activity was determined by measurement of die decrease in absorbance at 475 nm after 2 min. […]

mice = test: Delayed-type hypersensitivity reaction to mBSA, footpad swelling; type: in vivo, mouse; conditions: 5 and 15 mg/kg/24 h IP, twice daily for 7 days prior to mBSA challenge and further 24 h (FIG. 4)
Text: Delayed-type hypersensitivity reactions, which are initiated by T lymphocyte responses to recall antigens and mediated by many cell types including macrophages, are known to be dependent on the cytokine or biological activity of MIF^(16,17). For example, an anti-MIF monoclonal antibody suppresses delayed-type hypersensitivity reactions in vivo to methylated bovine scrum albumin (mBSA) injected into the skin of animals preimmunised with mBSA^(16). A compound inhibiting die cytokine or biological function of MIF might be expected to inhibit delayed-type hypersensitivity reactions in vivo.
Mice were immunised on day 0 with 200 μg of methylated BSA (mBSA; Sigma Chemical Co., Castle Hill, Australia) emulsified in 0.2 ml of Freund's complete adjuvant (CFA; Sigma) injected subcutaneously in the flank skin. At day 7, mice were given 100 μg mBSA in 0.1 ml CFA by intradermal injection at the base of the tail. […] Mice were killed 24 h later and footpad swelling quantified using micro calipers (Mitutoyo, Kawasaki-shi, Japan). […] Results were expressed as the difference in footpad swelling between mBSA and saline-injected footpads, and expressed as change in footpad thickness (mm). […] Treatment with compound 13 continued for a further 24 h and changes in footpad thickness relative to control paws were measured at that time.

[6] = system: Recombinant human MIF-induced leukocyte-endothelial cell adhesion in mice; test: rhMIF-induced leukocyte adhesion, intravital microscopy of cremaster muscle; type: in vivo, mouse; conditions: 30 mg/kg intraperitoneal 10 minutes prior to intrascrotal MIF, 4 hours (FIG. 5)
Text: As will be known to those skilled in the art, the adherence of leukocytes to the endothelium in vivo can be studied using the technique of intravital microscopy^(18,19). As MIF induces leukocyte adherence to vascular endothelium as measured using intravital microscopy, a compound inhibiting the Cytokine or biological activity of MIF might be expected to inhibit the effects of MIF observable using intravital microscopy.
Mice were anesthetised with ketamine/xylazine, and the cremaster muscle was exteriorized onto an optically-clear viewing pedestal. The cremasteric microcirculation was visualized using an intravital microscope (Axioplan 2 Imaging; Carl Zeiss, Australia) with a 20× objective lens (LD Achroplan 20×/0.40 NA, Carl Zeiss, Australia) and a 10× eyepiece. Three-five postcapillary venules (25-40 μm in diameter) were examined for each experiment. Images were visualized using a video camera and recorded on video-tape for subsequent playback analysis. Recombinant human MIF ([…]) was injected intrascrotally in 150 μL saline, prior to intravital microscopy 4 hours later. Leukocyte-endothelial cell adhesion, was assessed as described by Gregory et al^(19). Compound 13 at a dose of 30 mg/kg or vehicle were administered by intraperitoneal injection 10 minutes prior to intrascrotal injection of MIF.

[7] = system: IL-1 induced COX-2 expression in S112 human dermal fibroblasts; test: Inhibition of interleukin-1 induction of cyclooxygenase-2 expression in S112 human dermal fibroblasts; type: cell-based; conditions: S112 cells, up to 100 μM compound, IL-1 0.1 ng/ml, 6 hours (FIG. 2)
Text: The activity of compounds was studied in a bioassay for MIF-dependent cytokine effects of human S112 dermal fibroblasts. In these cells the induction of the expression of cyclooxygenase-2 (COX-2) protein by interleukin 1 (IL-1) is dependent upon the presence of endogenous MIF^(13). The expression of COX2 proteins is therefore sensitive to depiction of endogenous MIF by neutralizing antibody, gene knockout of targeting with small molecule inhibitors. A compound with the ability to inhibit the biological activity of MIF would therefore inhibit die activation of COX2 expression hi response to IL-1.
S112 human dermal fibroblasts were propagated in RPMI/10% foetal calf serum (FCS). Prior to experimentation, cells were seeded at 10^5 cells/ml in RPMI/0.1% BSA for 18 hours. Cells were treated with recombinant human IL-1 (0.1 ng/ml) and with each compound at concentrations ranging up to 100 μM. A control was treated only with recombinant human TL-1 (0.1 ng/ml) and vehicle (DMSO). After 6 hours, cells were collected and intracellular COX-2 protein determined by permeabilisation flow cytometry. […] Cellular fluorescence was determined using a flow cytometer. At least 5000 events were counted for each reading, each of which was performed in duplicate, and the results expressed in mean fluorescence intensity (MFI) after subtraction of negative control-labelled cell fluorescence.

[8] = steady state evaluation, 5% DMSO, read-out: Steady State Method (equilibrium dissociation constant KD)
[9] = kinetics evaluation, read-out: Kinetics Method Kd

| SMILES | solubility [1] [µg/mL] | suppression of LPS-induced serum TNF levels, in words (C57Bl/6j mice) | inhibition at 50 µM [2] [%] | Kd [3, 8] [µM] | equilibrium dissociation constant (KD) values, in words [3] | IC50 ([4]; Mus musculus) [µM] | inhibition of LPS-induced IL-6 production, in words [4] | inhibition at 50 µM ([5]; 50 uM compound) [%] | inhibition at 100 µM ([5]; 100 uM compound) [%] | kon [3] [M⁻¹ s⁻¹] | Kinetics Method Kd (10^−3 s^−1) [3] | Kd [3, 9] [µM] | inhibition of DTH reactions (change in footpad thickness), in words (mice) | reduction of MIF-induced leukocyte adhesion [6] | inhibition of IL-1 induced COX-2 expression, in words [7] |
| --- | --- | --- | --- | --- | --- | --- | --- | --- | --- | --- | --- | --- | --- | --- | --- |
| O=C(O)CCSCC(=O)c1ccc2[nH]c(=O)[nH]c2c1 [Compound 4, 3-((2-oxo-2-(2-oxo-2,3-dihydro-1H-benzimidazol-5-yl)ethyl)thio)propanoic acid] | > 140 | significant dose-dependent suppression | 5 ± 49 | 5.1 | low micromolar range |  |  |  |  |  |  |  |  |  |  |
| CCCCSCC(=O)c1ccc2[nH]c(=O)sc2c1 [Compound 19, 6-((Butylthio)acetyl)-1,3-benzothiazol-2(3H)-one] |  | significant dose-dependent suppression | 82 ± 13 | 27 ± 2.3 | low micromolar range | 20 | dose-dependent inhibition | 9 ± 4 | 17 ± 8 | 2200 ± 1000 | 6.2 ± 1.2 10^−3 s^−1 | 3.6 ± 1 |  |  |  |
| O=C(O)CCSCC(=O)c1cc2c(cc1Cl)NC(=O)C2 [Compound 13, 3-((2-(6-chloro-2-oxo-2,3-dihydro-1H-indol-5-yl)-2-oxoethyl)thio)propanoic acid] |  | significant dose-dependent suppression | 32 ± 30 | 10 ± 1.4 | low micromolar range |  |  |  |  | 600 ± 200 | 1.3 ± 0.3 10^−3 s^−1 | 2.5 ± 1.2 | significant inhibition | approximately 50% |  |
| O=C(O)CCSCC(=O)c1ccc2c(c1)CC(=O)N2 [Compound 2] |  | significant dose-dependent suppression |  |  |  |  |  |  |  |  |  |  |  |  | dose-dependent inhibition |
